From patent US20240287036A1, “COMPOUNDS USEFUL IN THE TREATMENT OR PREVENTION OF A PRMT5-MEDIATED DISORDER” (ARGONAUT THERAPEUTICS LIMITED, priority 2021, published 2024) come the findings set out here.

Data set [1] deals with T1, human PRMT5/MEP50 (Homo sapiens, UniProt O14744).
T1 construct: host or cells: HEK293 cells
The data set can be described thus: PRMT5 chemiluminescent assay. Format: biochemical. Particulars: human PRMT5/MEP50 expressed in HEK293 cells, biotinylated histone peptides, 60 min reaction; read-out: PRMT5 pIC50 (converted). As to the method:
A PRMT5 chemiluminescent assay was used to measure the IC50 activity of PRMT5 of the compounds of CEx and Examples 1 to 8 above. Biotinylated histone peptides were synthesized and attached to 384-well plates. Compound serial dilutions were performed and added to the assay plate. Histone H4 monomethyl R^3 antibody was obtained from Abcam. A master mix for each well was prepared and human PRMT5/MEP50 (expressed in HEK293 cells) diluted in assay buffer to a concentration of 5 ng/μL. The reaction was incubated and slowly rotated for 60 minutes at the point of PRMT5/MEP50 addition. The supernatant from the wells was removed and blocking buffer was added to each well and rotated for 10 minutes. The primary antibody was diluted and added to every well for 60 minutes, before it was removed and the wells washed. The horse radish peroxidase (HRP)-coupled secondary antibody was diluted and added to each well with an incubation time of 30 minutes. The HRP chemiluminescent substrate was added to every well. The plate was read on a Flourstar Omega BMG Labtech instrument (Ortenberg, Germany) and the analysis of IC50 was performed using the Flourstar Omega BMG Labtech software.

Data set [2] can be described thus: Hepatocyte stability assay (Human Hep Clint). Format: in vitro ADME. The settings on record: cryopreserved pooled human hepatocytes, 0.5 × 10^6 cells/mL, 1 μM test compound, up to 90 min. As to the method: The activity of the compounds was tested using several industry accepted methods. These included methods to measure the human hepatocyte clearance values (Human Hep Clint) and a PRMT5 assay. The methods that were used were conventional.
Cell viability was tested by trypan blue exclusion after thawing.
Thawing Medium: Williams' Medium E containing 5% fetal bovine serum and 30% Percoll solution and other supplements.
Incubation Medium: Williams' Medium E (no phenol red) containing 2 mM L-Glutamine and 25 mM HEPES.
Stop Solution: Acetonitrile containing 200 ng/ml tolbutamide and labetalol as internal standards.
The following steps were performed. • 1. 10 mM test compounds were provided by Compound Sample Group. • 2. 30 mM positive control stock solutions: Dissolved accurate amount of positive control compounds in dimethyl sulfoxide (DMSO). • 3. 1000× Stock Solution: Diluted 10 mM test compounds and 30 mM positive control compounds to 1 mM and 3 mM with DMSO in 96-well plates. • 4. 100× Dosing Solution: Diluted 1 mM test compounds and 3 mM positive control compounds to 100 µM and 300 µM dosing solutions with ACN. • 5. Preparation of 0.5×10^6/mL cells suspension: cryopreserved cells were thawed, isolated and suspended in Incubation Medium, then diluted with pre-warmed Incubation Medium to 0.5×10^6 cells/mL. • 6. Add 198 μL of pre-warmed cell suspensions in 96-well plates. • 7. Preparation of Quenching Plate: Transfer 125 μL of stop solution (acetonitrile containing 200 ng/ml tolbutamide and 200 ng/ml labetalol as internal standards) in a set of pre-labelled 96-well plates. • 8. Spike 2 μL dosing solution to each well of 96-well plates in duplicates. • 9. For T0 Samples, mix to achieve a homogenous suspension for about 1 min, then immediately transfer 25 μL of each sample into well containing 125 μL of ice-cold stop solution followed by mixing. • 10. Incubate all plates at 37° ° C. in a 95% humidified incubator at 5% CO2 to start the reactions with constant shaking at about 600 rpm. • 11. At 15, 30, 60 and 90 min, mix samples and then transfer 25 μL of each sample at each time point to well containing 125 μL of ice-cold stop solution followed by mixing. • 12. Medium Control (MC) sample plates (labelled as T0-MC and T90-MC) are prepared at TO and T90 by adding the same components to each well except cell suspensions. • 13. At each corresponding time point, stop the reactions by removing the plates from incubator and mixing with 125 μL of ice-cold stop solution. • 14. Vortex the plates immediately on a plate shaker at 500 rpm for 10 minutes. Then, centrifuge all sample plates at 3220× g for 20 min at 4° C. • 15. After centrifugation, 80 μL/well of supernatant in the sample plates are transferred to another set of pre-labelled 96-well plates which containing 240 μL of ultra pure water according to the plate map. • 16. Analytical plates are sealed and store at 4° C. until LC-MS/MS analysis.
The remaining percents of test articles after incubation were calculated by the follow equations: […]
Use equation of first order kinetics to calculate t1/2 and CLint. Equation of first order kinetics:
[formula] [formula] CLint (hep)=k/million cells per mL
CLint (liver)=CLint (hep)·liver weight (g/kg body weight)*hepatocellularity

T1 sequence (O14744 whole entry): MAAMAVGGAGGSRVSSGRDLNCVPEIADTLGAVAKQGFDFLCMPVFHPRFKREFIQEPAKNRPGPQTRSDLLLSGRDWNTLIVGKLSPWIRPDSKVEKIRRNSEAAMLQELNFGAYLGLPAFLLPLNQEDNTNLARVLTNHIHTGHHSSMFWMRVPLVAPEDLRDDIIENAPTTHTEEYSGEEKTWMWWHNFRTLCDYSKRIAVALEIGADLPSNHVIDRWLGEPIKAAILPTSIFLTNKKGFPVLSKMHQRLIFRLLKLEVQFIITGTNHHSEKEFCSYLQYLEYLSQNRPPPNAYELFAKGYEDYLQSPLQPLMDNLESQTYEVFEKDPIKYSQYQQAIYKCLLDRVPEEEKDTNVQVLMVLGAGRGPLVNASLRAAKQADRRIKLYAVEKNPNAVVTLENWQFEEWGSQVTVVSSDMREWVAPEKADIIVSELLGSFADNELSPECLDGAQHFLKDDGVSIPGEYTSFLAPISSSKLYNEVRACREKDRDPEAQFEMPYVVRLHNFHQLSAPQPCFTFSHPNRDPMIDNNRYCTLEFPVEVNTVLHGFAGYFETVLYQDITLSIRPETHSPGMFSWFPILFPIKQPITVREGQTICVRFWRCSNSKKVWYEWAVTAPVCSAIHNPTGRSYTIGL
T1 sequence (Q9BQA1 whole entry partner): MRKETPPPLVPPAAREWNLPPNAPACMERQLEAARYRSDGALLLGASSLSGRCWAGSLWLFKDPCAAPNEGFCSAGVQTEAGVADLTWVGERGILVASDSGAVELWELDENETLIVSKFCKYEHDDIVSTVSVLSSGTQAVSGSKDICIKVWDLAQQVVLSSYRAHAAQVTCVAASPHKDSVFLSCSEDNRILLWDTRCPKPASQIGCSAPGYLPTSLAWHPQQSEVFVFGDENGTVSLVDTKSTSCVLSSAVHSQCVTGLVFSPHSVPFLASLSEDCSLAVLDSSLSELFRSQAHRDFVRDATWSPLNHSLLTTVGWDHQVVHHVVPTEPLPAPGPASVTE

Take `O=C(NC[C@H](O)CN1CCc2ccccc2C1)N1CCC[C@@H](c2ccccc2)C1` [CEx, reference compound]: the IC50 in data set [1] is 0.0126 µM. The intrinsic metabolic clearance (hepatocyte CLint) (commonly a measure of how fast metabolising enzymes remove a compound, apart from limits set by blood flow) at 1 μM in data set [2] is 54.1 µL/min/1e6 cells. The matching figures for `O=C(NC[C@H](O)CN1CCc2ccccc2C1)N1CCC[C@@H](N2CCCC2=O)C1` [Ex. 1, (R)—N—((S)-3-(3,4-dihydroisoquinolin-2(1H)-yl)-2-hydroxypropyl)-3-(2-oxopyrrolidin-1-yl)piperidine-1-carboxamide]: 0.0501 µM and 1.7 µL/min/1e6 cells. On the same counts, the results for `O=C(NC[C@H](O)CN1CCc2ccccc2C1)N1CCC[C@@H](N2CCCCC2=O)C1` [Ex. 2, (R)—N—((S)-3-(3,4-dihydroisoquinolin-2(1H)-yl)-2-hydroxypropyl)-2-oxo-[1,3′-bipiperidine]-1′-carboxamide] are 0.0158 µM and less than 3 µL/min/1e6 cells. On the same counts, the results for `CC1CCC(=O)N([C@@H]2CCCN(C(=O)NC[C@H](O)CN3CCc4ccccc4C3)C2)C1` (stereo partly drawn) [Ex. 3, (3′R)—N—((S)-3-(3,4-dihydroisoquinolin-2(1H)-yl)-2-hydroxypropyl)-5-methyl-2-oxo-[1,3′-bipiperidine]-1′-carboxamide] are 0.0316 µM and 2.5 µL/min/1e6 cells.

Consider `[2H]C1([2H])c2ccccc2CCN1C[C@@H](O)CNC(=O)N1CCC[C@@H](N2CCCCC2=O)C1` [Ex. 4, (R)—N—((S)-3-(3,4-dihydroisoquinolin-2(1H)-yl-1,1-d2)-2-hydroxypropyl)-2-oxo-[1,3′-bipiperidine]-1′-carboxamide], for which the IC50 in data set [1] is 0.0316 µM. The compound also returned a hepatocyte CLint at 1 μM in data set [2] of 2.5 µL/min/1e6 cells.

`[2H]C1([2H])CN(C[C@@H](O)CNC(=O)N2CCC[C@@H](N3CCCCC3=O)C2)C([2H])([2H])c2ccccc21` [Ex. 5, (R)—N—((S)-3-(3,4-dihydroisoquinolin-2(1H)-yl-1,1,4,4-d4)-2-hydroxypropyl)-2-oxo-[1,3′-bipiperidine]-1′-carboxamide]: the IC50 in data set [1] is 0.02 µM.

Regarding `CC1CCCN([C@@H]2CCCN(C(=O)NC[C@H](O)CN3CCc4ccccc4C3)C2)C1=O` (stereo partly drawn) [Ex. 6, (3′R)—N—((S)-3-(3,4-dihydroisoquinolin-2(1H)-yl)-2-hydroxypropyl)-3-methyl-2-oxo-[1,3′-bipiperidine]-1′-carboxamide], the IC50 in data set [1] was 0.0126 µM. The compound further yielded an intrinsic clearance (hepatocyte CLint) at 1 μM in data set [2] of less than 6 µL/min/1e6 cells.

`Cc1ccnn([C@@H]2CCCN(C(=O)NC[C@H](O)CN3CCc4ccccc4C3)C2)c1=O` [Ex. 7, (R)—N—((S)-3-(3,4-dihydroisoquinolin-2(1H)-yl)-2-hydroxypropyl)-3-(5-methyl-6-oxopyridazin-1(6H)-yl)piperidine-1-carboxamide]: the IC50 in data set [1] was 0.00794 µM. This compound also showed an intrinsic metabolic clearance (hepatocyte CLint) at 1 μM in data set [2] of 10.8 µL/min/1e6 cells. On the same counts, the results for `CN1CCCN([C@@H]2CCCN(C(=O)NC[C@H](O)CN3CCc4ccccc4C3)C2)C1=O` [Ex. 8, (R)—N—((S)-3-(3,4-dihydroisoquinolin-2(1H)-yl)-2-hydroxypropyl)-3-(3-methyl-2-oxotetrahydropyrimidin-1(2H)-yl)piperidine-1-carboxamide] are 0.0126 µM and less than 6.4 µL/min/1e6 cells.
